pIC50: −log10 of the molar value.
Legend:
[1] = test system: human multiple myeloma cell line, OPM-2; assay: Cell viability assay (OPM-2 10 FBS), CellTiter-Glo; type: cell-based; details: Homo sapiens, OPM-2, 16 h, read-out: OPM-2 10% FBS IC50 IP, OPM-2 cells, 10% FBS, 16 h incubation
Outline: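 Serially diluted test compounds are incubated 16 h with cells (3000/well) in RPMI 1640 supplemented with 10% FBS. Viability is then measured by luminescence and IC50 calculated by 4-parameter logistic fit.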

[2] = molecular target: recombinant human Mcl-1 (residues 171-327) / Bim interaction (Homo sapiens (Human), UniProt Q07820); assay: biochemical; type: binding; details: 0.1 nM Mcl-1(171-327), 0.05 nM biotin-Bim (51-76); read-out: Mcl-1 HTRF IC50
Chain of recombinant human Mcl-1 (residues 171-327) / Bim interaction (Q07820 171-327): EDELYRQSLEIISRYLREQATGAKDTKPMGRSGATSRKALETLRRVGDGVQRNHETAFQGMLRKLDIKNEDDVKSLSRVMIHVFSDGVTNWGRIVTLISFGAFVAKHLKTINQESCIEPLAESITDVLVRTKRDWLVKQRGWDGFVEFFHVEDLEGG

CO[C@@]1(CN2CCN(C(C)(C)C)CC2)/C=C/C[C@H](C)[C@@H](C)S(=O)(=O)NC(=O)c2ccc3c(c2)N(C[C@@H]2CC[C@H]21)C[C@@]1(CCCc2cc(Cl)ccc21)CO3 [Example 335, (1S,3′R,6′R,7′S,8′E,11′S,12′R)-7′-((4-tert-butyl-1-piperazinyl)methyl)-6-chloro-7′-methoxy-11′,12′-dimethyl-3,4-dihydro-2H,15′H-spiro[naphthalene-1,22′-[20]oxa[13]thia[1,14]diazatetracyclo [14.7.2.0~3,6~.0~19,24~]pentacosa[8,16,18,24]tetraen]-15′-one 13′,13′-dioxide]
pIC50 [1]: 6.88
pIC50 [2]: 9.83

CO[C@]1(CN2C[C@@H](C)N(C)[C@@H](C)C2)/C=C/C[C@H](C)[C@@H](C)S(=O)(=O)NC(=O)c2ccc3c(c2)N(C[C@@H]2CC[C@H]21)C[C@@]1(CCCc2cc(Cl)ccc21)CO3 [Example 336, (1S,3′R,6′R,7′R,8′E,11′S,12′R)-6-chloro-7′-methoxy-11′,12′-dimethyl-7′-(((3R,5S)-3,4,5-trimethyl-1-piperazinyl)methyl)-3,4-dihydro-2H,15′H-spiro[naphthalene-1,22′-[20]oxa[13]thia[1,14]diazatetracyclo [14.7.2.0~3,6~.0~19,24~]pentacosa[8,16,18,24]tetraen]-15′-one 13′,13′-dioxide]
pIC50 [1]: 7.29
pIC50 [2]: 10.07

CO[C@]1(CN2CCN(C(C)C)[C@@H](C)C2)/C=C/C[C@H](C)[C@@H](C)S(=O)(=O)NC(=O)c2ccc3c(c2)N(C[C@@H]2CC[C@H]21)C[C@@]1(CCCc2cc(Cl)ccc21)CO3 [Example 337, (1S,3′R,6′R,7′R,8′E,11′S,12′R)-6-chloro-7′-methoxy-11′,12′-dimethyl-7′-(((3S)-3-methyl-4-(1-methylethyl)-1-piperazinyl)methyl)-3,4-dihydro-2H,15′H-spiro[naphthalene-1,22′-[20]oxa[13]thia[1′14]diazatetracyclo [14.7.2.0~3,6~.0~19,24~]pentacosa[8,16,18,24]tetraen]-15′-one 13′,13′-dioxide]
pIC50 [1]: 7.23
pIC50 [2]: 10.05

CO[C@@]1(CN2CCN(Cc3ncccn3)CC2)/C=C/C[C@H](C)[C@@H](C)S(=O)(=O)NC(=O)c2ccc3c(c2)N(C[C@@H]2CC[C@H]21)C[C@@]1(CCCc2cc(Cl)ccc21)CO3 [Example 338, (1S,3′R,6′R,7′S,8′E,11′S,12′R)-6-chloro-7′-methoxy-11′,12′-dimethyl-7′-((4-(2-pyrimidinylmethyl)-1-piperazinyl)methyl)-3,4-dihydro-2H,15′H-spiro[naphthalene-1,22′-[20]oxa[13]thia[1,14]diazatetracyclo [14.7.2.0~3,6~.0~19,24~]pentacosa[8,16,18,24]tetraen]-15′-one 13′,13′-dioxide]
pIC50 [1]: 7.24
pIC50 [2]: 10.00

CO[C@@]1(CN2CCN(C3CS(=O)(=O)C3)CC2)/C=C/C[C@H](C)[C@@H](C)S(=O)(=O)NC(=O)c2ccc3c(c2)N(C[C@@H]2CC[C@H]21)C[C@@]1(CCCc2cc(Cl)ccc21)CO3 [Example 339, (1S,3′R,6′R,7′S,8′E,11′S,12′R)-6-chloro-7′-((4-(1,1-dioxido-3-thietanyl)-1-piperazinyl)methyl)-7′-methoxy-11′,12′-dimethyl-3,4-dihydro-2H,15′H-spiro[naphthalene-1,22′-[20]oxa[13]thia[1,14]diazatetracyclo [14.7.2.0~3,6~.0~19,24~]pentacosa[8,16,18,24]tetraen]-15′-one 13′,13′-dioxide]
pIC50 [1]: 6.82
pIC50 [2]: 9.93

CO[C@@]1(CN2CCN(C3COCCOC3)CC2)/C=C/C[C@H](C)[C@@H](C)S(=O)(=O)NC(=O)c2ccc3c(c2)N(C[C@@H]2CC[C@H]21)C[C@@]1(CCCc2cc(Cl)ccc21)CO3 [Example 340, (1S,3′R,6′R,7′S,8′E,11′S,12′R)-6-chloro-7′-((4-(1,4-dioxepan-6-yl)-1-piperazinyl)methyl)-7′-methoxy-11′,12′-dimethyl-3,4-dihydro-2H,15′H-spiro[naphthalene-1,22′-[20]oxa[13]thia[1,14]diazatetracyclo [14.7.2.0~3,6~.0~19,24~]pentacosa[8,16,18,24]tetraen]-15′-one 13′,13′-dioxide]
pIC50 [1]: 7.22
pIC50 [2]: 9.89

CCN1[C@H](C)CN(C[C@@]2(OC)/C=C/C[C@H](C)[C@@H](C)S(=O)(=O)NC(=O)c3ccc4c(c3)N(C[C@@H]3CC[C@H]32)C[C@@]2(CCCc3cc(Cl)ccc32)CO4)C[C@@H]1C [Example 341, (1S,3′R,6′R,7′R,8′E,11′S,12′R)-6-chloro-7′-(((3R,5S)-4-ethyl-3,5-dimethyl-1-piperazinyl)methyl)-7′-methoxy-11′,12′-dimethyl-3,4-dihydro-2H,15′H-spiro[naphthalene-1,22′-[20]oxa[13]thia[1,14]diazatetracyclo [14.7.2.0~3,6~.0~19,24~]pentacosa[8,16,18,24]tetraen]-15′-one 13′,13′-dioxide]
pIC50 [1]: 7.38
pIC50 [2]: 10.28

CO[C@]1(CN2CCN(C3COCCOC3)CC2)/C=C/C[C@H](C)[C@@H](C)S(=O)(=O)NC(=O)c2ccc3c(c2)N(C[C@@H]2CC[C@H]21)C[C@@]1(CCCc2cc(Cl)ccc21)CO3 [Example 342, (1S,3′R,6′R,7′R,8′E,11′S,12′R)-6-chloro-7′-((4-(1,4-piperazinyl)methyl)-7′-dioxepan-6-yl)-1-methoxy-11′,12′-dimethyl-3,4-dihydro-2H,15′H-spiro[naphthalene-1,22′-[20]oxa[13]thia[1,14]diazatetracyclo [14.7.2.0~3,6~.0~19,24~]pentacosa[8,16,18,24]tetraen]-15′-one 13′,13′-dioxide]
pIC50 [1]: 6.98
pIC50 [2]: 10.05

CO[C@]1(CN2C[C@@H](C)N(C(C)C)[C@H](C)C2)/C=C/C[C@H](C)[C@@H](C)S(=O)(=O)NC(=O)c2ccc3c(c2)N(C[C@@H]2CC[C@H]21)C[C@@]1(CCCc2cc(Cl)ccc21)CO3 [Example 343, (1S,3′R,6′R,7′R,8′E,11′S,12′R)-6-chloro-7′-(((3R,5R)-3,5-dimethyl-4-(1-methylethyl)-1-piperazinyl)methyl)-7′-methoxy-11′,12′-dimethyl-3,4-dihydro-2H,15′H-spiro[naphthalene-1,22′-[20]oxa[13]thia[1,14]diazatetracyclo [14.7.2.0~3,6~.0~19,24~]pentacosa[8,16,18,24]tetraen]-15′-one 13′,13′-dioxide]
pIC50 [1]: 7.03
pIC50 [2]: 10.03

COCCN(CCOC)C1CN(C[C@]2(OC)/C=C/C[C@H](C)[C@@H](C)S(=O)(=O)NC(=O)c3ccc4c(c3)N(C[C@@H]3CC[C@H]32)C[C@@]2(CCCc3cc(Cl)ccc32)CO4)C1 [Example 344, (1S,3′R,6′R,7′S,8′E,11′S,12′R)-7′-((3-(bis(2-methoxyethyl)amino)-1-azetidinyl)methyl)-6-chloro-7′-methoxy-11′,12′-dimethyl-3,4-dihydro-2H,15′H-spiro[naphthalene-1,22′-[20]oxa[13]thia[1,14]diazatetracyclo [14.7.2.0~3,6~.0~19,24~]pentacosa[8,16,18,24]tetraen]-15′-one 13′,13′-dioxide]
pIC50 [1]: 7.24
pIC50 [2]: 9.94

CO[C@@]1(CN2CCN3CCOC[C@@H]3C2)/C=C/C[C@H](C)[C@@H](CCO)S(=O)(=O)NC(=O)c2ccc3c(c2)N(C[C@@H]2CC[C@H]21)C[C@@]1(CCCc2cc(Cl)ccc21)CO3 [Example 346, (1S,3′R,6′R,7′S,8′E,11′S,12′R)-6-Chloro-7′-((9aS)-hexahydropyrazino[2,1-c][1,4]oxazin-8(1H)-ylmethyl)-12′-(2-hydroxyethyl)-7′-methoxy-11′-methyl-3,4-dihydro-2H, 15′H-spiro[naphthalene-1,22′-[20]oxa[13]thia[1,14]diazatetracyclo[14.7.2.0-3,6˜.0˜19,24˜]pentacosa[8,16,18,24]tetraen]-15′-one 13′,13′-dioxide]
pIC50 [1]: 7.18
pIC50 [2]: 10.21

CC(C)CO[C@@]1(CN2CCN3CCOC[C@@H]3C2)/C=C/C[C@H](C)[C@@H](C)S(=O)(=O)NC(=O)c2ccc3c(c2)N(C[C@@H]2CC[C@H]21)C[C@@]1(CCCc2cc(Cl)ccc21)CO3 [Example 349, (1S,3′R,6′R,7′S,8′E,11′S,12′R)-6-chloro-7′-((9aS)-hexahydropyrazino[2,1-c][1,4]oxazin-8(1H)-ylmethyl)-11′,12′-dimethyl-7′-(2-methylpropoxy)-3,4-dihydro-2H,15′H-spiro[naphthalene-1,22′-[20]oxa[13]thia[1,14]diazatetracyclo [14.7.2.0~3,6~.0~19,24~]pentacosa[8,16,18,24]tetraen]-15′-one 13′,13′-dioxide]
pIC50 [1]: 5.11
pIC50 [2]: 8.79

CC(C)CO[C@@]1(CN2CCN3CCCC[C@@H]3C2)/C=C/C[C@H](C)[C@@H](C)S(=O)(=O)NC(=O)c2ccc3c(c2)N(C[C@@H]2CC[C@H]21)C[C@@]1(CCCc2cc(Cl)ccc21)CO3 [Example 350, (15,3′R,6′R,7′S,8′E,11′S,12′R)-6-chloro-11′,12′-dimethyl-7′-(2-methylpropoxy)-7′-((9aR)-octahydro-2H-pyrido[1,2-a]pyrazin-2-ylmethyl)-3,4-dihydro-2H,15′H-spiro[naphthalene-1,22′-[20]oxa[13]thia[1,14]diazatetracyclo [14.7.2.0~3,6~.0~19,24~]pentacosa[8,16,18,24]tetraen]-15′-one 13′,13′-dioxide]
pIC50 [1]: < 4.48
pIC50 [2]: 7.91

CCCO[C@]1(CN2CCN3CCOC[C@@H]3C2)/C=C/C[C@H](C)[C@@H](C)S(=O)(=O)NC(=O)c2ccc3c(c2)N(C[C@@H]2CC[C@H]21)C[C@@]1(CCCc2cc(Cl)ccc21)CO3 [Example 351, (1S,3′R,6′R,7′R,8′E,11′S,12′R)-6-chloro-7′-((9aS)-hexahydropyrazino[2,1-c][1,4]oxazin-8(1H)-ylmethyl)-11′,12′-dimethyl-7′-propoxy-3,4-dihydro-2H,15′H-spiro[naphthalene-1,22′-[20]oxa[13]thia[1,14]diazatetracyclo [14.7.2.0~3,6~.0~19,24~]pentacosa[8,16,18,24]tetraen]-15′-one 13′,13′-dioxide]
pIC50 [1]: 6.71
pIC50 [2]: 9.92

— patent publication US10821115B2, “Compounds that inhibit Mcl-1 protein” (priority 2017, dated 2020)
